Assay results reported in patent US11168073B2, “3,3-difluoroallylamines or salts thereof and pharmaceutical compositions comprising the same” (YUHAN CORPORATION, priority 2018, dated 2021).
Where a name gives a salt, the structure may show the parent alone. Read-outs that look alike come from different tables or passages of the source.

Legend:
Type in all cases: biochemical
[1] = molecular target: T1, recombinant human MAO-A (monoamine oxidase-A) (Homo sapiens, UniProt P21397); assay: Activity evaluation on recombinant human MAO-A (Amplex Red/HRP-coupled assay, 0.5 mM tyramine substrate); conditions: read-out: Inhibitory Activity (IC50, nM) MAO-A
T1 construct: purchased Sigma-Aldrich
T1 sequence (P21397 1-527): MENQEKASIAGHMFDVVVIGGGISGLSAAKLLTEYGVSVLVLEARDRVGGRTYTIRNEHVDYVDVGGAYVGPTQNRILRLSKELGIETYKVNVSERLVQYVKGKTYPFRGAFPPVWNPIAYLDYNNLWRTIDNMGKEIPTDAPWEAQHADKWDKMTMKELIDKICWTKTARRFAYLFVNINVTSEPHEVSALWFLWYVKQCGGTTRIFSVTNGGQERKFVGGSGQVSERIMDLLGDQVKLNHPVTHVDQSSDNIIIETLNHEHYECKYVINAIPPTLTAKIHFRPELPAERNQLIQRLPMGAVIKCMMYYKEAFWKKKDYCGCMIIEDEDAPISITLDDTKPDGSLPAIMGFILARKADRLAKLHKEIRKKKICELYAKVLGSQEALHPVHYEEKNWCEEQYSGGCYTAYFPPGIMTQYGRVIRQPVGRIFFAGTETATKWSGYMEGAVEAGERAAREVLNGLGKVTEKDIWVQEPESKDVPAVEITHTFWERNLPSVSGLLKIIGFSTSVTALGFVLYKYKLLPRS
Method in brief: (§1)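 Each oxidase is tested with its own substrate: MAO-A with 0.5 mM tyramine, MAO-B with 1 mM benzylamine, DAO with 1 mM putrescine. After 30 min enzyme-compound preincubation at 37 °C, Amplex Red (200 uM) plus HRP (1 U/mL) reports H2O2 as fluorescence; IC50 is fitted from eight-point curves.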

recombinant human VAP-1 = molecular target: T2, recombinant human VAP-1 (Homo sapiens, UniProt Q16853); assay: Activity evaluation on recombinant human VAP-1 (Amplex Red/HRP-coupled hydrogen peroxide assay, benzylamine substrate); conditions: read-out: Inhibitory Activity (IC50, nM) human VAP-1
T2 construct: purchased R&D systems
T2 sequence (Q16853 1-763): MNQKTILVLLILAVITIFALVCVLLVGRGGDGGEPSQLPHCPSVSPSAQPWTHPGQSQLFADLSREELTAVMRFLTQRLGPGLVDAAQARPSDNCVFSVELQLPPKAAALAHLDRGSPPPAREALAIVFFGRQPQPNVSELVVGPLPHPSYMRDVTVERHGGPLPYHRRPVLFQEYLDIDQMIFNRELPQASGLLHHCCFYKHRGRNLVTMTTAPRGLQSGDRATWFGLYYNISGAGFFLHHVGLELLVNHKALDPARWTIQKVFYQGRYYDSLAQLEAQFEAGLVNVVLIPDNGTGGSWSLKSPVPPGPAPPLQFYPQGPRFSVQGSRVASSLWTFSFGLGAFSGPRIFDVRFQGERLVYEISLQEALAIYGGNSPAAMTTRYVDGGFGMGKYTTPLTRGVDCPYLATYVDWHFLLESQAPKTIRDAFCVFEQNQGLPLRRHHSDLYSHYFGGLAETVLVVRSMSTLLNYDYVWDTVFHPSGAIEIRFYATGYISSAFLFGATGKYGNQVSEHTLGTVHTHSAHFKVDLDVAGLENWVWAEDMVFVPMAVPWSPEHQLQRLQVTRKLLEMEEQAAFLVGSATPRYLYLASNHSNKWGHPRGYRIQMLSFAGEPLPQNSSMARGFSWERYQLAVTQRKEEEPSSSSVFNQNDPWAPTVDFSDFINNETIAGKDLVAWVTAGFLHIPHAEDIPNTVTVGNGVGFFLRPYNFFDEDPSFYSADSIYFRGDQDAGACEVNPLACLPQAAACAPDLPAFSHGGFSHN
Method in brief: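 Hydrogen peroxide from benzylamine (1 mM) oxidation by human recombinant VAP-1 detected via HRP-coupled Amplex Red (200 uM) fluorescence, kinetic over 1–2 h. Enzyme and compound preincubated 30 min at 37 °C, pH 7.4 phosphate; 8-point dose response, signal-rate decrease versus DMSO control fitted to four-parameter logistic for IC50.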

[2] = molecular target: T3, recombinant human DAO (diamine oxidase) (Homo sapiens, UniProt P19801); assay: Activity evaluation on recombinant human DAO (Amplex Red/HRP-coupled assay, 1 mM putrescine substrate); conditions: read-out: Inhibitory Activity (IC50, nM) DAO
T3 construct: purchased R&D systems
T3 sequence (P19801 20-751): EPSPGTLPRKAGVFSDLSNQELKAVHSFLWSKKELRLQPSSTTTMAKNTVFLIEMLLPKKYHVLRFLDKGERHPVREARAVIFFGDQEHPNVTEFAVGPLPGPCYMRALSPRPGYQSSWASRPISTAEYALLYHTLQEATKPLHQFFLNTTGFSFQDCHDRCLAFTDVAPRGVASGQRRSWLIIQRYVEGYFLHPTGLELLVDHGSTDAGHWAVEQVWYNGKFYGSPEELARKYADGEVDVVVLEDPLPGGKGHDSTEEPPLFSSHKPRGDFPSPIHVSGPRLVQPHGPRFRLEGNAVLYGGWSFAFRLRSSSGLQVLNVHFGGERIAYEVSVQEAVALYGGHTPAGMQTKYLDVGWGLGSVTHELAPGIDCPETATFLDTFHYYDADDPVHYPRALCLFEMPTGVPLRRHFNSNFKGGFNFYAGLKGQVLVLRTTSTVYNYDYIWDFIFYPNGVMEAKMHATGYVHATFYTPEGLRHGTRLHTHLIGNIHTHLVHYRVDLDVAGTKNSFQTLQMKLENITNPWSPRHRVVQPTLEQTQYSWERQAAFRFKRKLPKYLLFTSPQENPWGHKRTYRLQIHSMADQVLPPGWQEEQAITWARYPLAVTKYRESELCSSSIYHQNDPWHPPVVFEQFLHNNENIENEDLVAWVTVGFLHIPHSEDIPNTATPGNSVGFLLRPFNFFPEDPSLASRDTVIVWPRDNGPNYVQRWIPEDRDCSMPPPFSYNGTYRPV
Method in brief: as §1

[3] = molecular target: T4, recombinant human MAO-B (monoamine oxidase-B) (Homo sapiens, UniProt P27338); assay: Activity evaluation on recombinant human MAO-B (Amplex Red/HRP-coupled assay, 1 mM benzylamine substrate); conditions: read-out: Inhibitory Activity (IC50, nM) MAO-B
T4 construct: purchased Sigma-Aldrich
T4 sequence (P27338 1-520): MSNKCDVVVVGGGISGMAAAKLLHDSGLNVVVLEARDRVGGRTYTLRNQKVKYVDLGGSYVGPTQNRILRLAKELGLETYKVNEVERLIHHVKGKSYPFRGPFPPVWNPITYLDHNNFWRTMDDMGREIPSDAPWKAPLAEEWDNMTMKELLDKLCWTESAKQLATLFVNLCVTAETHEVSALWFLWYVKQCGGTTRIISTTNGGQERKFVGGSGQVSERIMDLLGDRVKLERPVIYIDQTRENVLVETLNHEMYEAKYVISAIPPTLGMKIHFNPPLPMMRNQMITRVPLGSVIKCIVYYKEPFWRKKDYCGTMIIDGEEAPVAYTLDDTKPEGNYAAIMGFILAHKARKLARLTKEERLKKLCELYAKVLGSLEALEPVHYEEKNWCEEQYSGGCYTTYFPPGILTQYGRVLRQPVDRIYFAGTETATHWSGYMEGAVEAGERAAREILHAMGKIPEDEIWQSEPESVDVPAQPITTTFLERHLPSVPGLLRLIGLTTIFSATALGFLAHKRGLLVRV
Method in brief: as §1

[4] = recombinant human VAP-1, 30 min preincubation at 37° C., 1 mM benzylamine
[5] = recombinant human VAP-1, benzylamine substrate

Row | SMILES | IC50 ([1]; 0.5 mM tyramine) [nM] | IC50 (recombinant human VAP-1; [4]) [nM] | IC50 ([2]; 1 mM putrescine) [nM] | IC50 ([3]; 1 mM benzylamine) [nM] | IC50 ([1]; 0.5 mM tyramine substrate) [nM] | IC50 (recombinant human VAP-1; [5]) [nM] | IC50 ([2]; 1 mM putrescine substrate) [nM] | IC50 ([3]; 1 mM benzylamine substrate) [nM]
1 | NCC(Cn1ncn(-c2cc(-c3ccc(N4CCNCC4)cc3)ccn2)c1=O)=C(F)F [Example 55, 2-[2-(aminomethyl)-3,3-difluoro-allyl]-4-[4-(4-piperazin-1-ylphenyl)-2-pyridyl]-1,2,4-triazol-3-one Ditrifluoroacetate] | > 100000 | 6.6 | 620 | > 100000 | – | – | – | –
2 | Cc1cc(Br)cnc1-n1cnn(CC(CN)=C(F)F)c1=O [Example 11, 2-[2-(aminomethyl)-3,3-difluoro-allyl]-4-(5-bromo-3-methyl-2-pyridyl)-1,2,4-triazol-3-one Trifluoroacetate] | > 100000 | 1.1 | > 100000 | 57000 | – | – | – | –
3 | Cc1cc(-n2cnn(CC(CN)=C(F)F)c2=O)cnc1Br [Example 13, 2-[2-(aminomethyl)-3,3-difluoro-allyl]-4-(6-bromo-5-methyl-3-pyridyl)-1,2,4-triazol-3-one Trifluoroacetate] | > 100000 | 3.6 | 910 | 3600 | – | – | – | –
4 | CCn1cc(-c2csc(Cn3cnn(CC(CN)=C(F)F)c3=O)c2)ccc1=O [Example 193, 5-[5-[[1-[2-(aminomethyl)-3,3-difluoro-allyl]-5-oxo-1,2,4-triazol-4-yl]methyl]-3-thienyl]-1-ethyl-pyridin-2-one Trifluoroacetate] | – | – | – | – | > 100000 | 1.3 | 8700 | > 100000
5 | Cc1c(-c2cccc(-c3nc[nH]n3)c2)cccc1-n1cnn(CC(CN)=C(F)F)c1=O [Example 263, 2-[2-(aminomethyl)-3,3-difluoro-allyl]-4-[2-methyl-3-[3-(1H-1,2,4-triazol-3-yl)phenyl]phenyl]-1,2,4-triazol-3-one Trifluoroacetate] | – | – | – | – | > 100000 | 29 | > 100000 | > 100000
6 | NCC(Cn1ncn(-c2cccc(-c3ccc(N4CCNCC4)cc3)c2)c1=O)=C(F)F [Example 18, 2-[2-(aminomethyl)-3,3-difluoro-allyl]-4-[3-(4-piperazin-1-ylphenyl)phenyl]-1,2,4-triazol-3-one Ditrifluoroacetate] | > 100000 | 15 | 13000 | > 100000 | – | – | – | –
7 | NCC(Cn1ncn(Cc2ccc(-c3ccc4cn[nH]c4c3)s2)c1=O)=C(F)F [Example 127, 2-[2-(aminomethyl)-3,3-difluoro-allyl]-4-[[5-(1H-indazol-6-yl)-2-thienyl]methyl]-1,2,4-triazol-3-one Trifluoroacetate] | > 100000 | 0.6 | > 100000 | 1070 | – | – | – | –
8 | CCn1cc(-c2cc(F)c(Cn3cnn(CC(CN)=C(F)F)c3=O)s2)ccc1=O [Example 299, 5-[5-[[1-[2-(aminomethyl)-3,3-difluoro-allyl]-5-oxo-1,2,4-triazol-4-yl]methyl]-4-fluoro-2-thienyl]-1-ethyl-pyridin-2-one Trifluoroacetate] | – | – | – | – | > 100000 | 1.4 | 9680 | > 100000
9 | NCC(Cn1ncn(Cc2ccc(-c3ccc4c(c3)OCO4)cc2)c1=O)=C(F)F [Example 268, 2-[2-(aminomethyl)-3,3-difluoro-allyl]-4-[[4-(1,3-benzodioxol-5-yl)phenyl]methyl]-1,2,4-triazol-3-one Trifluoroacetate] | – | – | – | – | > 100000 | 2.1 | > 100000 | 1870
10 | NCC(Cn1ncn(CCc2cccs2)c1=O)=C(F)F [Example 172, 2-[2-(aminomethyl)-3,3-difluoro-allyl]-4-[2-(2-thienyl)ethyl]-1,2,4-triazol-3-one Trifluoroacetate] | > 100000 | 13 | > 100000 | 61000 | – | – | – | –
11 | NCC(Cn1ncn(Cc2ccc(-c3cnn(CC4CC4)c3)s2)c1=O)=C(F)F [Example 295, 2-[2-(aminomethyl)-3,3-difluoro-allyl]-4-[[5-[1-(cyclopropylmethyl)pyrazol-4-yl]-2-thienyl]methyl]-1,2,4-triazol-3-one Trifluoroacetate] | – | – | – | – | > 100000 | 0.3 | > 100000 | > 100000
12 | NCC(Cn1ncn(-c2ncc(-c3ccc(C(F)(F)F)nc3)cc2F)c1=O)=C(F)F [Example 84, 2-[2-(aminomethyl)-3,3-difluoro-allyl]-4-[3-fluoro-5-[6-(trifluoromethyl)-3-pyridyl]-2-pyridyl]-1,2,4-triazol-3-one Trifluoroacetate] | > 100000 | 0.2 | 7 | 900 | – | – | – | –
13 | NCC(Cn1ncn(Cc2ccc(-c3ccc(C(=O)N4CCOCC4)cc3)s2)c1=O)=C(F)F [Example 109, 2-[2-(aminomethyl)-3,3-difluoro-allyl]-4-[[5-(4-morpholine-4-carbonyl)phenyl]-2-thienyl]methyl]-1,2,4-triazol-3-one trifluoroacetate] | > 100000 | 1.4 | 84000 | > 100000 | – | – | – | –
